Laboratory results: ChEMBL document CHEMBL3046117, “Synthesis of 1-(4-((E)-3-arylacryloyl) phenyl)-3,4-dibromo-1H-pyrrole-2,5-diones and screening for anti-Candida and antituberculosis activity” (2012)
Converted amounts (≈) assume the structure as drawn.

Columns and labels:
[1] = tested on: Mycobacterium tuberculosis; assay: Antimycobacterial activity against Mycobacterium tuberculosis H37Rv by MABA method; format: functional
Candida albicans = assay: Antifungal activity against Candida albicans by dilution method; format: functional

Compound: O=C(/C=C/c1ccccc1Cl)c1ccc(N2C(=O)C(Br)=C(Br)C2=O)cc1
- MIC90 [1]: 250 µg/mL (≈ 504 µM)
- MIC (Candida albicans): 1000 µg/mL (≈ 2020 µM)

Compound: NYSTATIN
- MIC (Candida albicans): 100 µg/mL

Compound: COc1ccc(/C=C/C(=O)c2ccc(N3C(=O)C(Br)=C(Br)C3=O)cc2)cc1OC
- MIC90 [1]: 500 µg/mL (≈ 959 µM)
- MIC (Candida albicans): 500 µg/mL (≈ 959 µM)

Compound: O=C(/C=C/c1ccccc1)c1ccc(N2C(=O)C(Br)=C(Br)C2=O)cc1
- MIC90 [1]: 500 µg/mL (≈ 1080 µM)
- MIC (Candida albicans): 250 µg/mL (≈ 542 µM)

Compound: COC1=CC(=O)C[C@@H](C)[C@]12Oc1c(Cl)c(OC)cc(OC)c1C2=O [GRISEOFULVIN]
- MIC (Candida albicans): 500 µg/mL (≈ 1420 µM)

Compound: O=C(/C=C/c1ccccc1O)c1ccc(N2C(=O)C(Br)=C(Br)C2=O)cc1
- MIC90 [1]: 50 µg/mL (≈ 105 µM)
- MIC (Candida albicans): 100 µg/mL (≈ 210 µM)

Compound: NNC(=O)c1ccncc1 [ISONIAZID]
- MIC90 [1]: 0.2 µg/mL (≈ 1.46 µM)

Compound: COc1ccc(/C=C/C(=O)c2ccc(N3C(=O)C(Br)=C(Br)C3=O)cc2)cc1
- MIC90 [1]: 500 µg/mL (≈ 1020 µM)
- MIC (Candida albicans): 1000 µg/mL (≈ 2040 µM)

Compound: O=C(/C=C/c1ccc(O)cc1)c1ccc(N2C(=O)C(Br)=C(Br)C2=O)cc1
- MIC90 [1]: 60 µg/mL (≈ 126 µM)
- MIC (Candida albicans): 150 µg/mL (≈ 314 µM)

Compound: Cc1ccc(/C=C/C(=O)c2ccc(N3C(=O)C(Br)=C(Br)C3=O)cc2)cc1
- MIC90 [1]: 500 µg/mL (≈ 1050 µM)
- MIC (Candida albicans): 1000 µg/mL (≈ 2100 µM)

Compound: O=C(/C=C/c1ccc(Cl)cc1Cl)c1ccc(N2C(=O)C(Br)=C(Br)C2=O)cc1
- MIC90 [1]: 500 µg/mL (≈ 943 µM)
- MIC (Candida albicans): 500 µg/mL (≈ 943 µM)

Compound: COc1ccc(/C=C/C(=O)c2ccc(N3C(=O)C(Br)=C(Br)C3=O)cc2)cc1[N+](=O)[O-]
- MIC90 [1]: 1000 µg/mL (≈ 1870 µM)
- MIC (Candida albicans): 1000 µg/mL (≈ 1870 µM)

Compound: O=C(/C=C/c1ccc(Cl)cc1)c1ccc(N2C(=O)C(Br)=C(Br)C2=O)cc1
- MIC90 [1]: 100 µg/mL (≈ 202 µM)
- MIC (Candida albicans): 250 µg/mL (≈ 504 µM)

Compound: O=C(/C=C/c1cccc([N+](=O)[O-])c1)c1ccc(N2C(=O)C(Br)=C(Br)C2=O)cc1
- MIC90 [1]: 200 µg/mL (≈ 395 µM)
- MIC (Candida albicans): 250 µg/mL (≈ 494 µM)
